Assay: water solubility
Format: physicochemical
Details: in water (substance/water)

NCCCCCC(=O)O [6-aminocaproic acid]
solubility: > 500 mg/mL
